Reference: ChEMBL document CHEMBL5236657, “Synthesis and pharmacological validation of a novel radioligand for the orphan GPR88 receptor” (Bioorg Med Chem Lett, 2023)

Key:
[1] = molecular target: T1, G protein-coupled receptor 88 (Homo sapiens, UniProt Q9GZN0)
Description: Displacement of [3H]RTI-33 from GPR88 (unknown origin) by competition binding assay

[2] = molecular target: T1, G protein-coupled receptor 88; remark: listed apart in the source
Description: Agonist activity at GPR88 (unknown origin) transfected in HEK293 cells assessed as cAMP level by GloSensor cAMP assay

T1 sequence (Q9GZN0 whole entry): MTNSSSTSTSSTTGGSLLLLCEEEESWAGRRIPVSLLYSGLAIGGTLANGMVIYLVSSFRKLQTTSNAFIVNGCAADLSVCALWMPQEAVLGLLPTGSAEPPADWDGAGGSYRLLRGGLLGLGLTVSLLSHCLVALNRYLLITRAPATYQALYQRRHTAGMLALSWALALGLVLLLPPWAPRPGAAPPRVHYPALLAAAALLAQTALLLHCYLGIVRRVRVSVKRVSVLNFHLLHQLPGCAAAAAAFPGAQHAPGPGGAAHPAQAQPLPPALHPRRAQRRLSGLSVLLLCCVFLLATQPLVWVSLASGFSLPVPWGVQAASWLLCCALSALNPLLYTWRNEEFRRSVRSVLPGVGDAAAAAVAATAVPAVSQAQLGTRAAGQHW

CCCC(C)COc1ccc([C@H](CN)NC(=O)[C@@H](C)c2ccccc2)cc1 (some centres not stated)
Ki [1]: 219 nM | EC50 [2]: 304 nM
